This is an account of results in PubChem BioAssay (NCI).

“And” between values parts separate entries of the source, which are not always exact repeats. Equal entries are not always repeated.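 The compound was tested at five concentrations on cells cultured in 96-well plates, with a 48-hour exposure period. Here, GI50 denotes the concentration required for 50% inhibition of growth. The concentration for full growth arrest is given as TGI.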

Some test systems named below: A549 NSCLC; EKVX NSCLC; HL-60(TB) leukemia; HOP-92 NSCLC; LOX IMVI melanoma; MALME-3M melanoma; MOLT-4 leukemia; NCI-H522 lung; SK-OV-3 ovarian; SNB-19 CNS.
Assay in all cases: DTP human tumour cell line panel, 48 h

As to `CC1(O)CCn2c(=O)c3cc4ccccc4cc3c(=O)n2C1O` (stereo not given), the TGI in the test on A549 NSCLC, with EKVX NSCLC, with HL-60(TB) leukemia, in the test on HOP-92 NSCLC, in the test with LOX IMVI melanoma and with MALME-3M melanoma was greater than 100 µM throughout. Besides, the TGI with MOLT-4 leukemia was greater than 100 µM; in the test with NCI-H522 lung, 50.7 µM; in the test with SK-OV-3 ovarian, greater than 100 µM; in the test on SNB-19 CNS, greater than 100 µM.

For `CCCCCCCCCCCCCCCCCCOCC(COCCOCC[N+]1(CCCCCC(=O)[O-])CCCC1)Oc1ncccn1` (stereo not given), the TGI in the test on A549 NSCLC was 20 µM; with EKVX NSCLC it was 31.3 µM; with HL-60(TB) leukemia, 2.6 µM; in the test with HOP-92 NSCLC it was 5.93 µM; with LOX IMVI melanoma, 13 µM; in the test on MALME-3M melanoma, 32.8 µM. Also, the TGI in the test on MOLT-4 leukemia was 20.7 µM; in the test with NCI-H522 lung, 7.68 µM; with SK-OV-3 ovarian it was 6.62 µM; in the test on SNB-19 CNS it was 16.5 µM.

For `Cc1c(C)c(CC(=O)N2CC2)c(C)c(C)c1CC(=O)N1CC1`, the TGI in the test with A549 NSCLC is 50.3 µM; with EKVX NSCLC, 65.8 µM; in the test on HL-60(TB) leukemia it was 10.3 µM; in the test on HOP-92 NSCLC, 44.9 µM; in the test on LOX IMVI melanoma, greater than 49 µM; with MALME-3M melanoma it was 27.1 µM. Also, the TGI was 2.91 µM with MOLT-4 leukemia, 27.1 µM with NCI-H522 lung, 99.5 µM in the test with SK-OV-3 ovarian and greater than 100 µM in the test with SNB-19 CNS.

For `CC(C)[O-].CC(C)[O-].O=c1cccccc1[O-].O=c1cccccc1[O-].[Ti+4]`, the TGI was greater than 100 µM in the test on A549 NSCLC; greater than 100 µM in the test on EKVX NSCLC; greater than 100 µM in the test on HL-60(TB) leukemia; 90.8 µM in the test on HOP-92 NSCLC; greater than 100 µM in the test with LOX IMVI melanoma; 70.2 µM in the test with MALME-3M melanoma. Moreover, the TGI is greater than 100 µM with MOLT-4 leukemia, 62.8 µM in the test on NCI-H522 lung, greater than 100 µM in the test on SK-OV-3 ovarian and greater than 100 µM in the test on SNB-19 CNS.

In the case of `O=c1[nH]c2cc([N+](=O)[O-])ccc2nc1/C(=N\Nc1ccccc1)C(O)c1ccc2c(c1)OCO2` (stereo not given), the TGI is greater than 100 µM in the test with A549 NSCLC; greater than 100 µM with EKVX NSCLC; greater than 100 µM in the test on HL-60(TB) leukemia; 42.7 µM in the test with HOP-92 NSCLC; greater than 100 µM in the test with LOX IMVI melanoma; greater than 100 µM in the test with MALME-3M melanoma. Further, the TGI in the test with MOLT-4 leukemia, in the test with NCI-H522 lung, with SK-OV-3 ovarian and with SNB-19 CNS was greater than 100 µM each time.

As for `CCOC(OC1=C(C#N)CCCC1)C(CC)[Se]c1ccccc1` (stereo not given), the TGI in the test on A549 NSCLC is greater than 100 µM; in the test with EKVX NSCLC, 69.2 µM; with HL-60(TB) leukemia, 42.9 µM; in the test with HOP-92 NSCLC it was 61.3 µM; in the test on LOX IMVI melanoma, 21.9 µM; with MALME-3M melanoma, greater than 100 µM. For the same molecule, the TGI with MOLT-4 leukemia is 55.8 µM; in the test on NCI-H522 lung it was 29 µM; in the test on SK-OV-3 ovarian, greater than 100 µM; with SNB-19 CNS, greater than 100 µM.

For `N.N.N.N.N.O=S(=O)([O-])S(=O)(=O)[O-].[Co+3]`, the GI50 with A549 NSCLC, in the test on EKVX NSCLC, with HL-60(TB) leukemia, in the test with HOP-92 NSCLC, in the test on LOX IMVI melanoma and in the test on MALME-3M melanoma was greater than 100 µM throughout. Further, the GI50 with MOLT-4 leukemia, with NCI-H522 lung, in the test with SK-OV-3 ovarian and in the test on SNB-19 CNS was greater than 100 µM throughout. Also, the TGI in the test on A549 NSCLC, in the test with EKVX NSCLC, in the test on HL-60(TB) leukemia, in the test with HOP-92 NSCLC, with LOX IMVI melanoma and in the test on MALME-3M melanoma was greater than 100 µM in each case. For the same molecule, the TGI in the test on MOLT-4 leukemia, in the test with NCI-H522 lung, in the test on SK-OV-3 ovarian and with SNB-19 CNS was greater than 100 µM throughout.

Regarding `COc1ccc(C(=O)c2nc3ccccc3n2CC(=O)c2ccc(Cl)cc2)cc1`, the GI50 was 17.5 µM in the test on A549 NSCLC; 11.6 µM in the test on EKVX NSCLC; 0.958 µM in the test with HL-60(TB) leukemia; greater than 100 µM in the test on HOP-92 NSCLC; 6.2 µM with LOX IMVI melanoma; 1.92 µM in the test on MALME-3M melanoma. Further, the GI50 in the test on MOLT-4 leukemia was 2.09 µM; in the test with NCI-H522 lung, 3.95 µM; with SK-OV-3 ovarian, 10.4 µM; in the test with SNB-19 CNS, 4.32 µM. Further, the TGI was greater than 100 µM in the test on A549 NSCLC; greater than 100 µM in the test on EKVX NSCLC; 5.06 µM in the test on HL-60(TB) leukemia; greater than 100 µM with HOP-92 NSCLC; greater than 100 µM with LOX IMVI melanoma; greater than 100 µM in the test with MALME-3M melanoma. Further, the TGI with MOLT-4 leukemia, with NCI-H522 lung, with SK-OV-3 ovarian and in the test on SNB-19 CNS was greater than 100 µM in each case.

As for `CC(=Nc1ccc(S(N)(=O)=O)cc1)c1c(O)[nH]c2ccccc12`, the GI50 with A549 NSCLC, with EKVX NSCLC, in the test with HL-60(TB) leukemia, in the test on HOP-92 NSCLC, with LOX IMVI melanoma and in the test with MALME-3M melanoma was greater than 25 µM throughout. The GI50 in the test on MOLT-4 leukemia was greater than 25 µM; in the test with NCI-H522 lung it was greater than 25 µM; with SK-OV-3 ovarian it was greater than 12.2 µM; with SNB-19 CNS it was greater than 25 µM. Further, the TGI with A549 NSCLC, in the test with EKVX NSCLC, in the test with HL-60(TB) leukemia, in the test with HOP-92 NSCLC, in the test on LOX IMVI melanoma and in the test on MALME-3M melanoma was greater than 25 µM throughout. Further, the TGI in the test on MOLT-4 leukemia, in the test with NCI-H522 lung, with SK-OV-3 ovarian and with SNB-19 CNS was greater than 25 µM throughout.

For `Cc1ccc(-n2nc(C(C)(C)C)cc2NC(=O)NCc2cc(F)ccc2Oc2ccc3c(cnn3CCO)c2)cc1`, the GI50 is > 10 µM and 11.7 µM in the test on A549 NSCLC; greater than 10 µM in the test on EKVX NSCLC; 1.41 µM and 2.09 µM in the test with HL-60(TB) leukemia; 8.06 µM and 5.1 µM with HOP-92 NSCLC; 0.836 µM and 2.37 µM in the test on LOX IMVI melanoma; 0.396 µM and 0.305 µM in the test with MALME-3M melanoma. Moreover, the GI50 in the test with MOLT-4 leukemia is 9.91 µM and 2.05 µM; with NCI-H522 lung it was > 10 µM and 5.32 µM; in the test on SK-OV-3 ovarian, > 10 µM and 9.24 µM; with SNB-19 CNS it was > 10 µM and 17.9 µM. In addition, the TGI with A549 NSCLC was greater than 100 µM; with EKVX NSCLC, greater than 10 µM; with HL-60(TB) leukemia, > 10 µM and 10.1 µM; in the test on HOP-92 NSCLC, > 10 µM and 95.2 µM; with LOX IMVI melanoma, greater than 38.1 µM; in the test on MALME-3M melanoma, > 10 µM and 1.73 µM. The TGI with MOLT-4 leukemia was > 10 µM and 5.23 µM; in the test on NCI-H522 lung, > 10 µM and 37.8 µM; in the test with SK-OV-3 ovarian, greater than 83.9 µM; in the test on SNB-19 CNS it was greater than 100 µM.

Usually TGI stands for the concentration giving total growth inhibition. High values mean lower sensitivity of the cells, low ones greater sensitivity of the cells. What is called GI50 is the concentration that inhibits growth by half.
